This note sets out measurements from US20100298141A1, “SUBSTITUTED PYRIDINE N-OXIDE HERBICIDES” (E. I. DU PONT DE NEMOURS AND COMPANY, priority 2007, published 2010).

One assay has as its system Goosegrass. Put plainly: Test C pre-/postemergence test. Type of assay: in vivo, Eleusin indica. Conditions: for Plant response rating, Goosegrass: scale 0 to 100 (0 no effect, 100 complete control). From the text:
(§1) Seeds of plant species selected from blackgrass (Alopecurus myosuroides), downy brome (Bromus tectorum), green foxtail (Setaria viridis), Italian ryegrass (Lolium multiflorum), wheat (Triticum aestivum), wild oat (Avena fatua), catchweed bedstraw (Galium aparine), Russian thistle (Salsola kali), […] (Cynodon dactylon), Surinam grass (Brachiaria decumbens), cocklebur (Xanthium strumarium), corn (Zea mays), crabgrass (Digitaria sanguinalis), woolly cupgrass (Eriochloa villosa), giant foxtail (Setaria faberii), Goosegrass (Eleusin indica), johnsongrass (Sorghum halepense), kochia (Kochia scoparia), lambsquarters (Chenopodium album), morningglory (Ipomoea coccinea), eastern black nightshade (Solanum ptycanthum), yellow nutsedge (Cyperus esculentus), pigweed (Amaranthus retroflexus), common ragweed (Ambrosia elation), soybean (Glycine max), common (oilseed) sunflower (Helianthus annuus), and velvetleaf (Abutilon theophrasti) were planted and treated preemergence with test chemicals formulated in a non-phytotoxic solvent mixture which included a surfactant. At the same time, plants selected from these crop and weed species and also winter barley (Hordeum vulgare), canarygrass (Phalaris minor), and chickweed (Stellaria media) were treated with postemergence applications of some of the test chemicals formulated in the same manner. Plants ranged in height from 2 to 18 cm (1- to 4-leaf stage) for postemergence treatments. […] At time of treatment, test pots were flooded to 3 cm above the soil surface, treated by application of test compounds directly to the paddy water, and then maintained at that water depth for the duration of the test. […] A dash (-) response means no test result.

The subject of another assay is crabgrass. Nature of the assay: Test C pre-/postemergence test. Type of assay: in vivo, Digitaria sanguinalis. To be noted: for Plant response rating, Crabgrass, Large: scale 0 to 100 (0 no effect, 100 complete control).
Excerpt: as §1

The next assay deals with umbrella sedge. Nature of the assay: Test C flooded paddy test. Type of assay: in vivo, Cyperus difformis. Conditions: Flood. In outline:
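Flooded 3 cm over soil; compound into paddy water; depth kept constant. Greenhouse 13–15 d.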

In a further assay the test system is wheat. Put plainly: Test A pre-/postemergence greenhouse test. Type of assay: in vivo, Triticum aestivum. Conditions: for Wheat plant response rating: 0 to 100 scale; for Plant response rating, Wheat: 0 to 100 scale where 0 is no effect and 100 is complete control. Summed up: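 Visual injury ratings against untreated controls, taken roughly ten days after treatment in greenhouse. Plants were sprayed postemergence at one- to two-leaf stage (2–10 cm tall); at the same time, seeded loam/sand soil received a directed preemergence spray. Formulation: non-phytotoxic solvent mixture with surfactant.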

Setting [1] is: 31 g ai/ha, Preemergence, scale 0 to 100.
[2] abbreviates: 62 g ai/ha, preemergence, scale 0 (no effect) to 100 (complete control).
The mark [3] stands for this setting: preemergence, 125 g ai/ha, scale 0 (no effect) to 100 (complete control).
The mark [4] stands for this setting: 31 g ai/ha, scale 0 to 100 (0 no effect, 100 complete control).
The mark [5] stands for this setting: 62 g ai/ha, scale 0 to 100, 0 no effect, 100 complete control, 13 to 15 days.
Where [6] appears, read: 125 g ai/ha, scale 0 to 100, 0 no effect, 100 complete control, 13 to 15 days.
The mark [7] stands for this setting: Postemergence, 125 g ai/ha, 0 is no effect, 100 is complete control.
[8] abbreviates: Postemergence, 500 g ai/ha, 0 is no effect, 100 is complete control.
Setting [9] is: Preemergence, 125 g ai/ha, 0 no effect, 100 complete control.
The mark [10] stands for this setting: 62 g ai/ha, Preemergence, scale 0 to 100.
Where [11] appears, read: 250 g ai/ha, scale 0 to 100, 0 no effect, 100 complete control, 13 to 15 days.
Setting [12] is: 125 g ai/ha, preemergence, scale 0 (no effect) to 100 (complete control).
Setting [13] is: preemergence, 250 g ai/ha, scale 0 (no effect) to 100 (complete control).

Molecules are shown by their SMILES.

Take `Cn1nc(C(F)(F)F)c(C(Cl)S(=O)(=O)c2cccc[n+]2[O-])c1Cl` (stereo not drawn) [Compound 12]: the “Goosegrass plant response rating” value in the assay with Goosegrass (setting [1]), in the assay with Goosegrass (setting [2]) and with Goosegrass (setting [3]) was 100 in each case. The “Plant response rating (0 to 100), Goosegrass” value with Goosegrass (Preemergence, 250 g ai/ha) turned out to be 100. For the same molecule, the “Crabgrass, Large plant response rating” value in the assay on crabgrass (setting [1]), in the assay on crabgrass (setting [2]) and in the assay with crabgrass (setting [3]) was 100 throughout. The “Plant response rating (0 to 100), Crabgrass, Large” value with crabgrass (Preemergence, 250 g ai/ha) is given as 100. The “Plant response rating, Sedge, Umbrella” value is listed as 90 in the assay with umbrella sedge (setting [4]); 95 in the assay on umbrella sedge (setting [5]); 100 in the assay with umbrella sedge (setting [6]); 100 in the assay with umbrella sedge (250 g ai/ha, scale 0 to 100 (0 no effect, 100 complete control)). In addition, the “Wheat plant response rating” value is recorded as 0 in the assay on wheat (setting [7]), 40 with wheat (setting [8]) and 0 in the assay with wheat (setting [9]). The “Plant response rating, Wheat” value in the assay on wheat (Preemergence, 500 g ai/ha) turned out to be 30.

On to `Cn1nc(C(F)(F)F)c(CS(=O)(=O)c2ccc(Cl)c[n+]2[O-])c1Cl` [Compound 18], for which the “Goosegrass plant response rating” value in the assay with Goosegrass (setting [10]) is reported as 100. Besides, in the assay with Goosegrass (Preemergence, 31 g ai/ha), the “Plant response rating, Goosegrass” value was determined as 90. In addition, the “Plant response rating (0 to 100), Goosegrass” value in the assay on Goosegrass (Preemergence, 250 g ai/ha) came out at 100. In addition, the “Crabgrass, Large plant response rating” value in the assay with crabgrass (setting [10]) was 100. In addition, the “Plant response rating, Crabgrass, Large” value with crabgrass (Preemergence, 31 g ai/ha) stood at 80. Moreover, in the assay with crabgrass (Preemergence, 250 g ai/ha), the “Plant response rating (0 to 100), Crabgrass, Large” value worked out at 100. The “Plant response rating, Sedge, Umbrella” value in the assay on umbrella sedge (setting [4]) was 0; in the assay on umbrella sedge (setting [5]) it was 0; with umbrella sedge (setting [6]) it was 80; with umbrella sedge (setting [11]), 85. Further, the “Wheat plant response rating” value with wheat (setting [7]) is given as 0; in the assay with wheat (setting [8]), 30; with wheat (setting [9]) it was 0. The “Plant response rating, Wheat” value with wheat (Preemergence, 500 g ai/ha) stood at 20.

For `Cn1nc(C(F)(F)F)c(CS(=O)(=O)c2cc(C(C)(C)C)cc[n+]2[O-])c1OC(F)F` [Compound 25], in the assay with Goosegrass (setting [10]), the “Goosegrass plant response rating” value is recorded as 100. Also, the “Plant response rating, Goosegrass” value in the assay on Goosegrass (Preemergence, 31 g ai/ha) came out at 100. Besides, the “Plant response rating (0 to 100), Goosegrass” value in the assay with Goosegrass (Preemergence, 250 g ai/ha) is 100. In addition, the “Crabgrass, Large plant response rating” value with crabgrass (setting [10]) turned out to be 100. The “Plant response rating, Crabgrass, Large” value in the assay with crabgrass (Preemergence, 31 g ai/ha) was determined as 100. The “Plant response rating (0 to 100), Crabgrass, Large” value with crabgrass (Preemergence, 250 g ai/ha) amounted to 100. Besides, the “Plant response rating, Sedge, Umbrella” value with umbrella sedge (setting [4]) is reported as 0; in the assay with umbrella sedge (setting [5]), 80; in the assay with umbrella sedge (setting [6]), 80; with umbrella sedge (setting [11]), 85. The results for the “Wheat plant response rating” value with wheat (setting [7]), in the assay on wheat (setting [8]) and with wheat (setting [9]) were 0, 40 and 40, respectively. The “Plant response rating, Wheat” value with wheat (Preemergence, 500 g ai/ha) is 60.

Regarding `CC(c1c(C(F)(F)F)nn(CC(F)(F)F)c1Cl)[S+]([O-])c1cccc[n+]1[O-]` (stereo not drawn) [Compound 46], the “Goosegrass plant response rating” value with Goosegrass (setting [10]), with Goosegrass (setting [12]) and in the assay with Goosegrass (setting [13]) was 100 in each case. In the assay on Goosegrass (Preemergence, 31 g ai/ha), the “Plant response rating, Goosegrass” value was 98. Besides, the “Crabgrass, Large plant response rating” value with crabgrass (setting [10]), with crabgrass (setting [12]) and in the assay on crabgrass (setting [13]) was 100 each time. In addition, the “Plant response rating, Crabgrass, Large” value in the assay on crabgrass (Preemergence, 31 g ai/ha) was found to be 100. Further, in the assay with umbrella sedge (setting [11]), the “Plant response rating, Sedge, Umbrella” value was determined as 70. Besides, the “Plant response rating, Wheat” value in the assay with wheat (Postemergence, 125 g ai/ha) turned out to be 0; with wheat (Preemergence, 500 g ai/ha), 60. In addition, the results for the “Wheat plant response rating” value with wheat (setting [8]) and in the assay on wheat (setting [9]) were 50 and 0, respectively.
